# Literature values as cited in patent US20060150828A1, “Dried infant cereal compositions” (Beech-Nut Nutrition Corporation, priority 2005, published 2006).
# Details: storage at 37° C., precooked whole wheat flour containing the iron salt
row,Substance,pentane formation (fat oxidation)
1,ferrous sulfate,rapidly generated pentane
2,ferrous gluconate,rapidly generated pentane
